The structures appear in SMILES notation.

Assay [1] has as its target T1, mouse Smoothened (mSmo) (Mus musculus, UniProt P56726).
T1 sequence (P56726 32-236): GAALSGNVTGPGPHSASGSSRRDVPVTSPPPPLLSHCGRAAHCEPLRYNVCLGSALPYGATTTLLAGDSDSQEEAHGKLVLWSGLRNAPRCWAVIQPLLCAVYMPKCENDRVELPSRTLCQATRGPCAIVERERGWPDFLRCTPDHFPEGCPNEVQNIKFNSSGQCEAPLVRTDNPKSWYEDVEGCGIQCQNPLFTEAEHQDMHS
As to the kind of experiment: competition of 22-NHC bead binding.

The target in assay [2] is T1, mouse Smoothened (mSmo). As to the kind of experiment: competition of binding to 20-OHC affinity beads, immunoblot. (In general: In western blotting, separated proteins are transferred to a membrane and probed.)

Regarding `CC(C)CCC[C@](C)(O)[C@H]1CC[C@H]2[C@@H]3CC=C4C[C@@H](O)CC[C@]4(C)[C@H]3CC[C@@]21C` [20(S)-hydroxycholesterol], the “competition of 22-NHC bead binding; 20-OHC affinity beads, immunoblot” value on mouse Smoothened (mSmo) [1] is “Binding of mSmoCRD to 22-NHC beads was competed by 20-OHC and 20-OHC-Pent, but not by 7-OHC”. Regarding `C[C@H](CCCC(C)(C)O)[C@H]1CC[C@H]2[C@@H]3CC=C4C[C@@H](O)CC[C@]4(C)[C@H]3CC[C@]12C` [25-OHC], the “competition of binding to 20-OHC affinity beads, immunoblot” value at mouse Smoothened (mSmo) [2] is “binding of mSmo and mSmoCRD to 20-OHC beads was competed by the active oxysterol 25-OHC”.

Source of the values: paper PMC3749252 (Nature chemical biology, 2013).
